Each structure is given as a SMILES string.

Test [1] deals with CyPPO10 (Thermosynechococcus elongatus BP-1 PPO, SEQ ID NO: 2), wild type, MBP fusion (Thermosynechococcus vestitus, UniProt Q8DLV2). The experiment in a line: PPO inhibition assay. It is filed as biochemical.
The target of test [2] is CyPPO10 (Thermosynechococcus elongatus BP-1 PPO, SEQ ID NO: 2) variant R89A + F360I, MBP fusion (Thermosynechococcus vestitus, UniProt Q8DLV2, F360I/R89A). Nature of the test: biochemical.
Test [3] has as its target CyPPO10 (Thermosynechococcus elongatus BP-1 PPO, SEQ ID NO: 2) variant F360M, MBP fusion (Thermosynechococcus vestitus, UniProt Q8DLV2, F360M). Nature of the test: biochemical.
For test [4], the target named is CyPPO10 (Thermosynechococcus elongatus BP-1 PPO, SEQ ID NO: 2) variant R89A + F360M, MBP fusion (Thermosynechococcus vestitus, UniProt Q8DLV2, F360M/R89A). The experiment in a line: biochemical. To be noted: herbicide 0-5,000 nM, 50 μM substrate.
Test [5] relates to CyPPO13 (Synechococcus sp. JA-3-3Ab PPO, SEQ ID NO: 4), wild type, MBP fusion. Nature of the test: PPO inhibition assay. To be noted: herbicide 0-5,000 nM, 50 μM substrate. The class given is biochemical.
For test [6], the target named is CyPPO10 (Thermosynechococcus elongatus BP-1 PPO, SEQ ID NO: 2) variant F360I, MBP fusion (Thermosynechococcus vestitus, UniProt Q8DLV2, F360I). The experiment in a line: PPO inhibition assay. The class given is biochemical.
Test [7] addresses A. thaliana PPO1 (AtPPO1) (Arabidopsis thaliana, UniProt P55826). Nature of the test: Michaelis-Menten kinetics of PPO (plant control). To be noted: protoporphyrinogen IX oxidation. It is filed as biochemical.
Test [8] concerns the target T1, CyPPO10 (Thermosynechococcus elongatus BP-1 protoporphyrinogen oxidase, wild type, SEQ ID NO: 2), MBP fusion (Thermosynechococcus vestitus, UniProt Q8DLV2).
T1 construct: kinetics with protoporphyrinogen IX
The experiment in a line: Michaelis-Menten kinetics of purified PPO. It is filed as biochemical. The note with it: protoporphyrinogen IX oxidation, room temperature, pH 8.0. The procedure: (§1) The enzyme activities of PPO protein and PPO protein variants were examined, and inhibition assay by PPO-inhibiting herbicides was conducted. It was confirmed that the PPO protein has low water-solubility, but in case of being expressed as a fusion protein with MBP (maltose binding protein) (MBP-PPO), the PPO protein is able to be stably expressed as water-soluble form. Therefore, the wild type and variant proteins which were expressed in the form of fusion protein with MBP were used in the present test (refer to FIG. 4).
At first, a substrate of PPO protein, Protoporphyrinogen IX was synthesized. This process was performed in the space where nitrogen gas is streamed. […]
Two hundred microliters (200 μl) of reaction mixture containing a purified PPO protein were placed in 96 well plates, and preincubated for 30 min at room temperature to reduce the oxygen concentration by the reaction of glucose oxidase-catalase. […] The reaction proceeded at room temperature for 30 min and the fluorescence of protoporphyrin IX was measured using Microplate reader (Sense, Hidex) (excitation: 405 nm; emission: 633 nm). […] To this, 2.7N HCl was added, and the absorbance at 408 nm was measured. A standard curve was generated using standard protoporphyrin IX, and the PPO activity was measured by calibration of protoporphyrin IX using the standard curve of protoporphyrin IX. […]

Test [9] deals with Amaranthus PPO1. Nature of the test: Michaelis-Menten kinetics of PPO (plant control). To be noted: protoporphyrinogen IX oxidation. The class given is biochemical.
Test [10] has as its system CyPPO13 (Synechococcus sp. JA-3-3Ab protoporphyrinogen oxidase, wild type, SEQ ID NO: 4), MBP fusion. The experiment in a line: Michaelis-Menten kinetics of purified PPO. The class given is biochemical. To be noted: protoporphyrinogen IX oxidation, room temperature, pH 8.0.
In test [11] the test system is CyPPO13 (Synechococcus sp. JA-3-3Ab PPO, SEQ ID NO: 4) variant F373M, MBP fusion. Nature of the test: PPO inhibition assay. To be noted: herbicide 0-5,000 nM, 50 μM substrate. The class given is biochemical.
For test [12], the system named is soybean transformed with CyPPO10 A167L+F360M. Nature of the test: Herbicide tolerance of soybean. The class given is in vivo. To be noted: T1, 150 μM saflufenacil spray, 5 days.
Test [13] concerns CyPPO13 (Synechococcus sp. JA-3-3Ab PPO, SEQ ID NO: 4) variant F373I, MBP fusion. The experiment in a line: PPO inhibition assay. It is filed as biochemical. To be noted: herbicide 0-5,000 nM, 50 μM substrate. The procedure: as §1
(§2) At first, a substrate of PPO protein, Protoporphyrinogen IX was synthesized. This process was performed in the space where nitrogen gas is streamed. 6 mg of protoporphyrin IX was dissolved in 20% (v/v) EtOH 20 ml, and stirred under dark condition for 30 minutes. The obtained protoporphyrinogen IX solution was put into a 15 ml screw tube in an amount of 800 and flushed with nitrogen gas for 5 minutes. To this, 1 g of sodium amalgam was added and vigorous shaking was performed for 2 minutes. The lid was open to exhaust hydrogen gas in the tube. Thereafter, the lid was closed and incubated for 3 minutes. The […] was filtered using syringe and cellulose membrane filter. To 600 μl of the obtained […], 2M MOPS [3-(N-morpholino)propanesulfonic acid] was added in an amount of approximately 300 thereby adjusting pH to 8.0. To determine the enzyme activity of PPO protein, a reaction mixture was prepared with the following composition (based on 10 ml): 50 mM Tris-Cl (pH 8.0); 50 mM NaCl; 0.04% (v/v) Tween 20; 40 mM glucose (0.072 g); 5 units glucose oxidase (16.6 mg); and 10 units catalase (1 μl).
(§3) Two hundred microliters (200 μl) of reaction mixture containing a purified PPO protein were placed in 96 well plates, and preincubated for 30 min at room temperature to reduce the oxygen concentration by the reaction of glucose oxidase-catalase. The mineral oil was layered and then the reaction was initiated by adding the substrate, […], to a final concentration of 50 μM. The reaction proceeded at room temperature for 30 min and the fluorescence of protoporphyrin IX was measured using Microplate reader (Sense, Hidex) (excitation: 405 nm; emission: 633 nm). To calculate the PPO enzyme activity, protoporphyrinogen IX solution was kept open in the air to oxidize the solution (overnight). To this, 2.7N HCl was added, and the absorbance at 408 nm was measured. A standard curve was generated using standard protoporphyrin IX, and the PPO activity was measured by calibration of protoporphyrin IX using the standard curve of protoporphyrin IX.
(§4) The final concentration of each herbicide was as follows: […]

In test [14] the test system is CyPPO13 (Synechococcus sp. JA-3-3Ab PPO, SEQ ID NO: 4) variant F373L, MBP fusion. The experiment in a line: PPO inhibition assay. It is filed as biochemical. To be noted: herbicide 0-5,000 nM, 50 μM substrate. The procedure:
as §1, §2, §3, §4

Test [15] relates to BT3 (ΔPPO) E. coli with CyPPO10m-6 (E225G, G258S, Q266L, T336I, V356F, F360M, A364D, R406G, W419R; SEQ ID NO: 131). The experiment in a line: Growth of BT3 with error-prone PCR mutant of CyPPO10. The note with it: up to 200 μM herbicide. It is filed as cell-based.

Sequence of A. thaliana PPO1 (AtPPO1) (P55826 35-537): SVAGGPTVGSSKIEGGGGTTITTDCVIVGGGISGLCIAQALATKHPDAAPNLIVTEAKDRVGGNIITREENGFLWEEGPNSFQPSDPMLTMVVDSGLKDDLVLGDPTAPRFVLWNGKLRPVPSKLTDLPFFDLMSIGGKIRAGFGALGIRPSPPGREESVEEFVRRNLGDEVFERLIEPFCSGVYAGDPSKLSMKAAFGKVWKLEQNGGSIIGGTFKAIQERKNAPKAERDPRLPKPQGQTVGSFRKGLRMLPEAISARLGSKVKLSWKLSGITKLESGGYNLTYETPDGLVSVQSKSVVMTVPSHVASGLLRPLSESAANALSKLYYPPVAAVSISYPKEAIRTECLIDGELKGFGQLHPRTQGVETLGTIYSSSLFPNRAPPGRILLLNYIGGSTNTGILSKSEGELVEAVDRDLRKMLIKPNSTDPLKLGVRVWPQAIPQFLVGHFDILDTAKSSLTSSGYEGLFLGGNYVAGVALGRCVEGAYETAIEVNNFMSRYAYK
Sequence of CyPPO10 (Thermosynechococcus elongatus BP-1 PPO, SEQ ID NO: 2) variant R89A + F360I, MBP fusion (Q8DLV2 entry or part of it R89A/F360I): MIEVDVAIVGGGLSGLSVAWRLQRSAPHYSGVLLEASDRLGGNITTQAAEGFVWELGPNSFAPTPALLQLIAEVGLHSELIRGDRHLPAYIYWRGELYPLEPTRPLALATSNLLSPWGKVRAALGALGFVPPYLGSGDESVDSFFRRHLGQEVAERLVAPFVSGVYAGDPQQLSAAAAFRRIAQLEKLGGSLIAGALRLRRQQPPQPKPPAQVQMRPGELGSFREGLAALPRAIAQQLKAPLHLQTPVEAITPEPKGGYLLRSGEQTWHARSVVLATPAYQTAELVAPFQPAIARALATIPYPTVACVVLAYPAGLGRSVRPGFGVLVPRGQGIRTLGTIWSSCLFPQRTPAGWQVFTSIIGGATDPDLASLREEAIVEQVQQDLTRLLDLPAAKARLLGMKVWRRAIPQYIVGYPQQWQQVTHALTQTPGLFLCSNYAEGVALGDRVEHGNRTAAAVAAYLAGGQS
Sequence of CyPPO10 (Thermosynechococcus elongatus BP-1 PPO, SEQ ID NO: 2) variant F360M, MBP fusion (Q8DLV2 entry or part of it F360M): as the sequence (Q8DLV2 entry or part of it R89A/F360I) above, with A89R, I360M counted along it
Sequence of CyPPO10 (Thermosynechococcus elongatus BP-1 PPO, SEQ ID NO: 2) variant F360I, MBP fusion (Q8DLV2 entry or part of it F360I): as the sequence (Q8DLV2 entry or part of it R89A/F360I) above, with A89R counted along it
Sequence of CyPPO10 (Thermosynechococcus elongatus BP-1 PPO, SEQ ID NO: 2), wild type, MBP fusion (Q8DLV2 1-467): as the sequence (Q8DLV2 entry or part of it R89A/F360I) above, with A89R, I360F counted along it
T1 sequence (Q8DLV2 1-467): as the sequence (Q8DLV2 entry or part of it R89A/F360I) above, with A89R, I360F counted along it
Sequence of CyPPO10 (Thermosynechococcus elongatus BP-1 PPO, SEQ ID NO: 2) variant R89A + F360M, MBP fusion (Q8DLV2 entry or part of it R89A/F360M): as the sequence (Q8DLV2 entry or part of it R89A/F360I) above, with I360M counted along it

In general, IC50 refers to the midpoint of a concentration-inhibition curve. Consider `C=CCOC(=O)C(C)(C)OC(=O)c1cc(-n2c(=O)cc(C(F)(F)F)n(C)c2=O)ccc1Cl` [Butafenacil], for which the IC50 in test [1] came out at 0.008 µM; in test [2], 1.32 µM; in test [3], 0.024 µM; in test [4] it was 0.674 µM; in [5], 0.037 µM; in test [6] it was 0.268 µM.

As to `C=Cc1c2[nH]c(c1C)Cc1[nH]c(c(CCC(=O)O)c1C)Cc1[nH]c(c(C)c1CCC(=O)O)Cc1[nH]c(c(C)c1C=C)C2` [Protoporphyrinogen IX], the Vmax in test [7] was determined as 134.4 ± 19 μM mg protein^−1 min^−1; in test [8] it was 949.1 ± 64 μM mg protein^−1 min^−1; in test [9], 57 ± 7 μM mg protein^−1 min^−1; in [10], 341.4 ± 14 μM mg protein^−1 min^−1.

With `CC(C)N(C)S(=O)(=O)NC(=O)c1cc(-n2c(=O)cc(C(F)(F)F)n(C)c2=O)c(F)cc1Cl` [Saflufenacil], the values for the IC50 in [11], in test [13] and in test [14] were 0.481 µM, 1.48 µM and 1.47 µM, respectively. For the same molecule, the damage level entry in [12] is “no damage”. In test [15], the cell viability entry is on record as “cell viability similar to that of cells with wild type CyPPO10”.

These data come from US11466286B2, “Methods and compositions for conferring and/or enhancing herbicide tolerance using protoporphyrinogen oxidase or variant thereof” (FarmHannong Co., Ltd., priority 2016, dated 2022).
